Source: PMC8664950, “Potent but transient immunosuppression of T-cells is a general feature of CD71^+ erythroid cells” (Communications Biology, 2021)

Tests used:
ARG1 = molecular target: T1, ARG1 (Homo sapiens, UniProt P05089); assay: colorimetric urea-production arginase assay with recombinant enzyme; format: biochemical
T1 construct: recombinant human ARG1 (E. coli)
T1 sequence (P05089 1-322): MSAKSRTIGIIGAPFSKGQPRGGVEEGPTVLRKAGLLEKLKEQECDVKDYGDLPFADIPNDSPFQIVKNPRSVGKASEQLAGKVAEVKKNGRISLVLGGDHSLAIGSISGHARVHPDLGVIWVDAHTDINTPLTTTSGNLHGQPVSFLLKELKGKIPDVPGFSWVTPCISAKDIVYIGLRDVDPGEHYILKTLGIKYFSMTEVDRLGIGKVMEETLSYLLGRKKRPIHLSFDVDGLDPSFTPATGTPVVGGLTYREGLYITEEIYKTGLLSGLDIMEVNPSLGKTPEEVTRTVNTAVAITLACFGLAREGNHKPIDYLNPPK

ARG2 = molecular target: T2, ARG2 (Homo sapiens, UniProt P78540); assay: as above; format: biochemical
T2 construct: recombinant human ARG2 (E. coli)
T2 sequence (P78540 23-354): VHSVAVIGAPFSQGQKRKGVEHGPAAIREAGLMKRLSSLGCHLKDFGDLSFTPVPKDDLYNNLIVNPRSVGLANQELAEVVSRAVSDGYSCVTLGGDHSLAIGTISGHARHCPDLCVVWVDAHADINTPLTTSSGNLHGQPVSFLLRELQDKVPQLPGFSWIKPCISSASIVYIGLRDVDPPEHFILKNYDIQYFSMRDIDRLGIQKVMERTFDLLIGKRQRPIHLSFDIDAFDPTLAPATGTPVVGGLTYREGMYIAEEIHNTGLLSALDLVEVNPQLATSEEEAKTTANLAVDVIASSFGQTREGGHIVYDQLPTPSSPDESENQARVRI

NNc1ccccc1 [PHZ, phenylhydrazine]
IC50 (ARG1): 1020 µM | IC50 (ARG2): 61 µM
